The structures appear in SMILES notation. ≈ marks a conversion by molar mass, not a printed value.

The conditions of this data set: buffer; pH 7.4; 200.0 µM.
As to `O=C(COC(=O)c1ccc(S(=O)(=O)N2CCOCC2)cc1)Nc1ccccc1OC(F)F`, the solubility (kinetic) (as a rule, solubility judged after dilution from a stock solution rather than from solid) worked out at 4.8 µg/mL (≈ 10.2 µM).
Under `O=[N+]([O-])c1cccc2c(N3CCCC3)ccnc12` stands > 36.5 µg/mL; under `COC(=O)C1=C(C)N(C)C(=O)NC1c1ccc(O)c(Cl)c1` (configuration not stated), > 46.6 µg/mL; under `COc1ccccc1CNC(=O)c1cc2ccccc2o1`, 10.1 µg/mL (≈ 35.9 µM).
Take `Cc1cc(C)n2nc(C(=O)NNC(=O)c3ccccc3)nc2n1`: the solubility (kinetic) was > 46.5 µg/mL.
Turning to `CSc1ccccc1NC(=O)c1csc(C)c1`, the kinetic solubility was 30 µg/mL (≈ 114 µM).
`CCOC(=O)Cc1csc(NC(=O)Nc2ccc(OC(F)(F)F)cc2)n1` came in with a kinetic solubility of 0.3 µg/mL (≈ 0.771 µM).
Consider `COc1ccc(Cc2nnc(-c3ccccc3)o2)cc1`, for which the kinetic solubility was > 39.9 µg/mL.
As to `CN1CCC(O)(c2cccs2)C(C(=O)c2cccs2)C1` (configuration not stated), the solubility (kinetic) was found to be 42.1 µg/mL (≈ 137 µM).
In the case of `Cc1[nH]c2ccccc2c1C(=O)C(=O)NCCCn1ccnc1`, the kinetic solubility was > 46.6 µg/mL.
Take `CC1CN(C(=O)COC(=O)c2cnc(Cl)c(Cl)c2)CC(C)O1` (configuration not stated): the kinetic solubility is > 52.1 µg/mL.
Under `Cc1nn(-c2ccc(F)cc2)c(C)c1/C=C/C(=O)N1CCNC(=O)C1` stands > 51.4 µg/mL; under `CCN(CC)Cc1c(O)ccc2c(=O)c(Oc3ccccc3OC)c(C)oc12`, > 57.5 µg/mL; under `OCc1nc2c(ccc3ccccc32)[nH]1`, > 29.7 µg/mL.
Consider `CCn1cc(S(=O)(=O)NCCc2ccc(F)cc2)cn1`, for which the kinetic solubility is > 44.6 µg/mL.
In the case of `CCOC(=O)C1CCCN(C(=O)c2[nH]c3ccc(OC)cc3c2C)C1` (configuration not stated), the kinetic solubility was > 51.7 µg/mL.
Take `Cc1cccc(C)c1NC(=O)CNC(=O)c1ccncc1`: the solubility (kinetic) is > 42.5 µg/mL.
As for `O=c1[nH]c(-c2ccccc2)cnc1-c1ccccc1`, the kinetic solubility stood at 0.4 µg/mL (≈ 1.61 µM).
For the compound `CC(O)c1ccc(Oc2cnccn2)cc1` (configuration not stated), the solubility (kinetic) is > 32.4 µg/mL.
`CC1=C(C)CC(C(=O)Nc2nccs2)C(C(=O)O)C1` (configuration not stated) gave a kinetic solubility of 40.6 µg/mL (≈ 145 µM).
`CC(C)CNC(=O)N[C@@H](CC(C)C)C(=O)O`: the solubility (kinetic) is > 34.5 µg/mL.
Under `COc1ccccc1OCCNC(=O)CN1C(=O)NC2(CCCCC2)C1=O` stands > 56.3 µg/mL; under `Oc1ccc(-c2nccc(-c3ccccn3)n2)cc1`, 12.6 µg/mL (≈ 50.5 µM); under `COc1ccccc1CNc1ncccc1[N+](=O)[O-]`, 1.3 µg/mL (≈ 5.01 µM).
For `Cc1ccc(NC(=S)NC(=O)c2cncc(Br)c2)c(C)c1`, the kinetic solubility came to 4.5 µg/mL (≈ 12.4 µM).
On to `Clc1cccc(Cl)c1-c1noc(CN2CCOCC2)n1`, for which the kinetic solubility came to 31.8 µg/mL (≈ 101 µM).
The compound `COc1cccc(NC(=S)NCc2ccc(F)cc2)c1` showed a solubility (kinetic) of 37.9 µg/mL (≈ 131 µM).
Regarding `CC(C)NCC(O)COCCOc1ccc(Cl)cc1.Cl` (configuration not stated), the solubility (kinetic) is > 48.6 µg/mL.
For `CCCCOc1ccc(S(=O)(=O)N2CCCCC2)cc1`, the kinetic solubility was 1.1 µg/mL (≈ 3.7 µM).
Compound `O=C(NCc1ccccc1)c1cccn(Cc2ccccc2)c1=O` returned a solubility (kinetic) of 45.9 µg/mL (≈ 144 µM).
Compound `CCC1(c2ccc(F)cc2)NC(=O)NC1=O` (configuration not stated) returned a solubility (kinetic) of 28.5 µg/mL (≈ 128 µM).
Consider `Cc1ccc(/C(O)=C/C(=O)C(=O)NC23CC4CC(CC(C4)C2)C3)cc1`, for which the kinetic solubility turned out to be 8.4 µg/mL (≈ 24.7 µM).
On to `COc1ccc(NC(=O)c2cc(-c3ccccc3)on2)cc1OC`, for which the solubility (kinetic) was < 0.3 µg/mL.
Under `CO/N=C/C(c1ccc(Cl)nc1)S(=O)(=O)c1ccccc1` (configuration not stated) stands > 48.7 µg/mL; under `CC(C)Sc1ccc([N+](=O)[O-])cc1C(=O)Nc1ccncc1`, 40.8 µg/mL (≈ 129 µM); under `Cc1ccc(S(=O)(=O)N(C)C)cc1NC(=O)c1cc(-c2ccncc2)nc2ccccc12`, 10 µg/mL (≈ 22.4 µM).
For `COc1ccccc1C1CCN(Cc2ccc(Cl)c(Cl)c2)CC1`, the kinetic solubility was < 0.8 µg/mL.
As for `O=C(CNC(=O)c1ccco1)OCc1ccccc1Cl`, the solubility (kinetic) is > 44.1 µg/mL.
Turning to `CCCN1CCN(C(=O)CCCNC(=O)c2ccc(Cl)cc2)CC1`, the solubility (kinetic) was > 52.8 µg/mL.
Under `Cc1cnc(C(=O)OCc2nc3ccsc3c(=O)[nH]2)cn1` stands 45.3 µg/mL (≈ 150 µM).
Take `CCS(=O)(=O)N1CCC(C(=O)Nc2ccccc2OC)CC1`: the solubility (kinetic) worked out at 43.3 µg/mL (≈ 133 µM).
Under `C[C@@H](C(=O)OCC(=O)c1ccccc1)N1C(=O)C2CCCCC2C1=O` (some centres not stated) stands > 51.5 µg/mL; under `CCN(C(=O)/C=C/c1ccccc1)C1CCCCC1`, > 38.6 µg/mL.
As for `CCOc1ccc(Nc2nc(N)c([N+](=O)[O-])c(N3CCOCC3)n2)cc1`, the solubility (kinetic) was 2.4 µg/mL (≈ 6.66 µM).
As to `O=C1CCC(=O)N1c1ccccc1`, the kinetic solubility is > 26.3 µg/mL.
Regarding `COc1ccccc1NCCC(=O)O`, the solubility (kinetic) is > 29.3 µg/mL.
Under `Cc1ccc(NC(=O)N(CCC(=O)O)Cc2ccccc2)cc1` stands > 46.9 µg/mL.
`O=C(Cc1ccccc1)NCC(=O)N/N=C/c1cccnc1`: the kinetic solubility is > 44.4 µg/mL.
`Cc1ccc(C23CC4CC(CC(C(N)=O)(C4)C2)C3)cc1` returned a solubility (kinetic) of 16.6 µg/mL (≈ 61.6 µM).
The compound `COc1cccc(CNc2ccc(N3CCCCC3)cc2)c1OC` displayed a kinetic solubility of 39.5 µg/mL (≈ 121 µM).
With `COc1ccc(NC(=O)CNC(=O)Cc2ccccc2)cc1`, the solubility (kinetic) worked out at 10.6 µg/mL (≈ 35.5 µM).
For `O=C(CSc1nc2ccccc2c(=O)n1-c1ccccc1)N1CCC1`, the solubility (kinetic) was > 52.7 µg/mL.

For the origin of these results see PubChem BioAssay AID1996.
